# In US10760110B2, “Antibiotic testing and screening system” (priority 2017, dated 2020):
# Like-named read-outs stand apart in the source and are kept apart here.
# Columns and labels:
# [1] = test system: K. pneumoniae NVT1001 and its ΔompK35/36 and/or ΔramR mutants; test: Etest MIC, OmpK35/36 loss and AcrAB-TolC overexpression (ΔramR) strains (Table 6); assay type: cell-based, Klebsiella pneumoniae; conditions: Klebsiella pneumoniae
# How it was run: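 Ceftazidime and cefotaxime were tested by CLSI broth microdilution on the blaOXA-48 pACYC177 transformant of NVT1001, using CLSI 2017 breakpoints. Parent, porin-deleted (ΔompK35/36) and ΔramR strains were tested by Etest, with values between two-fold dilutions rounded up.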
# [2] = test system: K. pneumoniae NVT1001 ΔramRΔompK35/36 mutant and its revertants; test: Etest MIC, ΔramRΔompK35/36 mutant and its revertants (Table 7); assay type: cell-based; conditions: Klebsiella pneumoniae
# [3] = test system: K. pneumoniae NVT1001 strains with carbapenemase plasmids; test: Etest MIC of β-lactams, OmpK35/36 loss, ΔramR and/or carbapenemase (Table 9); assay type: cell-based, Klebsiella pneumoniae; conditions: for MIC: Klebsiella pneumoniae
# Experimental: DNA fragments of the resistance genes along with their flanking regions were amplified from clinical plasmids via PCR with specific primer pairs. The resulting PCR fragments were digested and then cloned into the plasmid pACYC177 or pACYC184. The resulting plasmids were then transformed into K. pneumoniae strain NVT1001 via electroporation. The recombinant bacteria were plated onto LB agar plates containing kanamycin (50 mg/L) or chloramphenicol (50 mg/L), and the presence of the cloned gene was confirmed via PCR and DNA sequencing.
# The MICs of antibiotics were determined using the Etest (Biodisk AB, Sweden) according to the manufacturer's instructions. The MICs from the Etest, which fall between standard two-fold dilutions, were rounded up to the next highest two-fold value. The MICs of ceftazidime and cefotaxime against K. pneumoniae NVT1001 harbouring the pACYC177 plasmid with blaOXA-48 were further determined using a broth microdilution test according to the recommendations of the CLSI,^25 and the results were interpreted according to the breakpoints established by the CLSI in 2017.^25 Meanwhile, due to the lack of CLSI breakpoints in 2016 and 2017, the results for cephalothin were interpreted according to the breakpoints established by the CLSI in 2015,^26 and the results for moxifloxacin were interpreted according to the breakpoints established by the EUCAST in 2017.^27
# [4] = ΔramRΔ35/36, ΔramRΔompK35/36 mutant
# [5] = ΔramRΔompK35/36::ompK35/36 revertant
# [6] = ΔramRΔompK35/36::ompK35 revertant
# [7] = ΔramRΔompK35/36::ompK36 revertant
# [8] = ΔramRΔompK35/36::ramR revertant
# [9] = ΔramRΔompK35/36::ramR::ompK35/36 revertant
# [10] = ΔramRΔompK35/36::ramR::ompK35 revertant
# [11] = ΔramRΔompK35/36::ramR::ompK36 revertant
smiles,measurement,setting,value
C[C@H]1[C@H](NC(=O)/C(=N\OC(C)(C)C(=O)O)c2csc(N)n2)C(=O)N1S(=O)(=O)O [Aztreonam],MIC,"[1]; WT, NVT1001, read-out: MIC",0.03 µg/mL
same,MIC,"[1]; Δ35, ΔompK35 mutant",0.25 µg/mL
same,MIC,"[1]; Δ35/36, ΔompK35/36 mutant",0.5 µg/mL
same,MIC,"[1]; Δ36, ΔompK36 mutant",0.06 µg/mL
same,MIC,[1]; ΔramR mutant,0.5 µg/mL
same,MIC,"[1]; ΔramRΔ35, ΔramRΔompK35 mutant",0.5 µg/mL
same,MIC,[1]; [4],1 µg/mL
same,MIC,"[1]; ΔramRΔ36, ΔramRΔompK36 mutant",1 µg/mL
same,MIC,[2]; [5],0.5 µg/mL
same,MIC,[2]; [6],1 µg/mL
same,MIC,[2]; [7],0.5 µg/mL
same,MIC,[2]; [8],0.5 µg/mL
same,MIC,[2]; [9],0.03 µg/mL
same,MIC,[2]; [10],0.06 µg/mL
same,MIC,[2]; [11],0.25 µg/mL
same,MIC,[2]; ΔramRΔompK35/36 mutant,1 µg/mL
same,susceptibility category,"[3]; IMP-8, NDM-1, VIM-1 and OXA-48 strains, with or without OmpK35/36 loss and/or ΔramR",susceptible
same,MIC,"[3]; IMP-8 on pACYC177, WT (NVT1001), read-out: MIC",0.06 µg/mL
same,MIC,"[3]; IMP-8 on pACYC177, Δ35 (ΔompK35 mutant)",0.25 µg/mL
same,MIC,"[3]; IMP-8 on pACYC177, Δ35/36 (ΔompK35/36 mutant)",0.5 µg/mL
same,MIC,"[3]; IMP-8 on pACYC177, Δ36 (ΔompK36 mutant)",0.06 µg/mL
same,MIC,"[3]; IMP-8 on pACYC177, ΔramR mutant",0.5 µg/mL
same,MIC,"[3]; IMP-8 on pACYC177, ΔramRΔ35 (ΔramRΔompK35 mutant)",0.5 µg/mL
same,MIC,"[3]; IMP-8 on pACYC177, ΔramRΔ35/36 (ΔramRΔompK35/36 mutant)",0.5 µg/mL
same,MIC,"[3]; IMP-8 on pACYC177, ΔramRΔ36 (ΔramRΔompK36 mutant)",0.5 µg/mL
same,MIC,"[3]; KPC-2 on pACYC177, WT (NVT1001), read-out: MIC",> 256 µg/mL
same,MIC,"[3]; KPC-2 on pACYC177, Δ35 (ΔompK35 mutant)",> 256 µg/mL
same,MIC,"[3]; KPC-2 on pACYC177, Δ35/36 (ΔompK35/36 mutant)",> 256 µg/mL
same,MIC,"[3]; KPC-2 on pACYC177, Δ36 (ΔompK36 mutant)",256 µg/mL
same,MIC,"[3]; KPC-2 on pACYC177, ΔramR mutant",> 256 µg/mL
same,MIC,"[3]; KPC-2 on pACYC177, ΔramRΔ35 (ΔramRΔompK35 mutant)",> 256 µg/mL
same,MIC,"[3]; KPC-2 on pACYC177, ΔramRΔ35/36 (ΔramRΔompK35/36 mutant)",> 256 µg/mL
same,MIC,"[3]; KPC-2 on pACYC177, ΔramRΔ36 (ΔramRΔompK36 mutant)",> 256 µg/mL
same,MIC,"[3]; KPC-3 on pACYC177, WT (NVT1001), read-out: MIC",> 256 µg/mL
same,MIC,"[3]; KPC-3 on pACYC177, Δ35 (ΔompK35 mutant)",> 256 µg/mL
same,MIC,"[3]; KPC-3 on pACYC177, Δ35/36 (ΔompK35/36 mutant)",> 256 µg/mL
same,MIC,"[3]; KPC-3 on pACYC177, Δ36 (ΔompK36 mutant)",> 256 µg/mL
same,MIC,"[3]; KPC-3 on pACYC177, ΔramR mutant",> 256 µg/mL
same,MIC,"[3]; KPC-3 on pACYC177, ΔramRΔ35 (ΔramRΔompK35 mutant)",> 256 µg/mL
same,MIC,"[3]; KPC-3 on pACYC177, ΔramRΔ35/36 (ΔramRΔompK35/36 mutant)",> 256 µg/mL
same,MIC,"[3]; KPC-3 on pACYC177, ΔramRΔ36 (ΔramRΔompK36 mutant)",> 256 µg/mL
same,MIC,"[3]; NDM-1 on pACYC177, WT (NVT1001), read-out: MIC",0.06 µg/mL
same,MIC,"[3]; NDM-1 on pACYC177, Δ35 (ΔompK35 mutant)",0.25 µg/mL
same,MIC,"[3]; NDM-1 on pACYC177, Δ35/36 (ΔompK35/36 mutant)",0.5 µg/mL
same,MIC,"[3]; NDM-1 on pACYC177, Δ36 (ΔompK36 mutant)",0.06 µg/mL
same,MIC,"[3]; NDM-1 on pACYC177, ΔramR mutant",0.5 µg/mL
same,MIC,"[3]; NDM-1 on pACYC177, ΔramRΔ35 (ΔramRΔompK35 mutant)",0.5 µg/mL
same,MIC,"[3]; NDM-1 on pACYC177, ΔramRΔ35/36 (ΔramRΔompK35/36 mutant)",0.5 µg/mL
same,MIC,"[3]; NDM-1 on pACYC177, ΔramRΔ36 (ΔramRΔompK36 mutant)",0.5 µg/mL
same,MIC,"[3]; OXA-48 on pACYC177, WT (NVT1001), read-out: MIC",0.06 µg/mL
same,MIC,"[3]; OXA-48 on pACYC177, Δ35 (ΔompK35 mutant)",0.25 µg/mL
same,MIC,"[3]; OXA-48 on pACYC177, Δ35/36 (ΔompK35/36 mutant)",0.5 µg/mL
same,MIC,"[3]; OXA-48 on pACYC177, Δ36 (ΔompK36 mutant)",0.125 µg/mL
same,MIC,"[3]; OXA-48 on pACYC177, ΔramR mutant",0.5 µg/mL
same,MIC,"[3]; OXA-48 on pACYC177, ΔramRΔ35 (ΔramRΔompK35 mutant)",0.5 µg/mL
same,MIC,"[3]; OXA-48 on pACYC177, ΔramRΔ35/36 (ΔramRΔompK35/36 mutant)",0.5 µg/mL
same,MIC,"[3]; OXA-48 on pACYC177, ΔramRΔ36 (ΔramRΔompK36 mutant)",0.5 µg/mL
same,MIC,"[3]; VIM-1 on pACYC177, WT (NVT1001), read-out: MIC",0.06 µg/mL
same,MIC,"[3]; VIM-1 on pACYC177, Δ35 (ΔompK35 mutant)",0.25 µg/mL
same,MIC,"[3]; VIM-1 on pACYC177, Δ35/36 (ΔompK35/36 mutant)",0.5 µg/mL
same,MIC,"[3]; VIM-1 on pACYC177, Δ36 (ΔompK36 mutant)",0.06 µg/mL
same,MIC,"[3]; VIM-1 on pACYC177, ΔramR mutant",0.5 µg/mL
same,MIC,"[3]; VIM-1 on pACYC177, ΔramRΔ35 (ΔramRΔompK35 mutant)",0.5 µg/mL
same,MIC,"[3]; VIM-1 on pACYC177, ΔramRΔ35/36 (ΔramRΔompK35/36 mutant)",1 µg/mL
same,MIC,"[3]; VIM-1 on pACYC177, ΔramRΔ36 (ΔramRΔompK36 mutant)",1 µg/mL
same,MIC,"[3]; no supplemental plasmid, WT (NVT1001), read-out: MIC",0.03 µg/mL
same,MIC,"[3]; no supplemental plasmid, Δ35 (ΔompK35 mutant)",0.25 µg/mL
same,MIC,"[3]; no supplemental plasmid, Δ35/36 (ΔompK35/36 mutant)",0.5 µg/mL
same,MIC,"[3]; no supplemental plasmid, Δ36 (ΔompK36 mutant)",0.06 µg/mL
same,MIC,"[3]; no supplemental plasmid, ΔramR mutant",0.5 µg/mL
same,MIC,"[3]; no supplemental plasmid, ΔramRΔ35 (ΔramRΔompK35 mutant)",0.5 µg/mL
same,MIC,"[3]; no supplemental plasmid, ΔramRΔ35/36 (ΔramRΔompK35/36 mutant)",1 µg/mL
same,MIC,"[3]; no supplemental plasmid, ΔramRΔ36 (ΔramRΔompK36 mutant)",1 µg/mL
"C[C@H]1COc2c(N3CCN(C)CC3)c(F)cc3c(=O)c(C(=O)O)cn1c23 [Levofloxacin, levofloxacin]",MIC,"[1]; WT, NVT1001, read-out: MIC",0.06 µg/mL
same,MIC,"[1]; Δ35, ΔompK35 mutant",0.125 µg/mL
same,MIC,"[1]; Δ35/36, ΔompK35/36 mutant",0.125 µg/mL
same,MIC,"[1]; Δ36, ΔompK36 mutant",0.125 µg/mL
same,MIC,[1]; ΔramR mutant,1 µg/mL
same,MIC,"[1]; ΔramRΔ35, ΔramRΔompK35 mutant",1 µg/mL
same,MIC,[1]; [4],1 µg/mL
same,MIC,"[1]; ΔramRΔ36, ΔramRΔompK36 mutant",1 µg/mL
same,MIC,[2]; [5],0.5 µg/mL
same,MIC,[2]; [6],1 µg/mL
same,MIC,[2]; [7],0.5 µg/mL
same,MIC,[2]; [8],0.125 µg/mL
same,MIC,[2]; [9],0.06 µg/mL
same,MIC,[2]; [10],0.06 µg/mL
same,MIC,[2]; [11],0.125 µg/mL
same,MIC,[2]; ΔramRΔompK35/36 mutant,1 µg/mL
"COc1c(N2C[C@@H]3CCCN[C@@H]3C2)c(F)cc2c(=O)c(C(=O)O)cn(C3CC3)c12 [Moxifloxacin, moxifloxacin]",MIC,"[1]; WT, NVT1001, read-out: MIC",0.125 µg/mL
same,MIC,"[1]; Δ35, ΔompK35 mutant",0.125 µg/mL
same,MIC,"[1]; Δ35/36, ΔompK35/36 mutant",0.125 µg/mL
same,MIC,"[1]; Δ36, ΔompK36 mutant",0.06 µg/mL
same,MIC,[1]; ΔramR mutant,1 µg/mL
same,MIC,"[1]; ΔramRΔ35, ΔramRΔompK35 mutant",1 µg/mL
same,MIC,[1]; [4],1 µg/mL
same,MIC,"[1]; ΔramRΔ36, ΔramRΔompK36 mutant",1 µg/mL
same,MIC,[2]; [5],0.5 µg/mL
same,MIC,[2]; [6],1 µg/mL
same,MIC,[2]; [7],0.5 µg/mL
same,MIC,[2]; [8],0.06 µg/mL
same,MIC,[2]; [9],0.125 µg/mL
same,MIC,[2]; [10],0.06 µg/mL
same,MIC,[2]; [11],0.125 µg/mL
same,MIC,[2]; ΔramRΔompK35/36 mutant,1 µg/mL
